According to the NIST ThermoML archive (doi:10.1016/j.tca.2007.01.009):
Numbers after ± are expanded uncertainties.

Assay: wn = mass fraction of the nth substance listed
Conditions: 101 kPa, Crystal, Hot wire method

[Pb] [lead] + [Cd]
thermal conductivity [W/m/K]
Conditions | 323.15 K | 373.15 K | 423.15 K | 473.15 K | 513.15 K
w2 = 0.033 | 38.36 ± 0.58 | 35.94 ± 0.54 | 30.79 ± 0.46 | 30.37 ± 0.46 | 27.68 ± 0.42
w2 = 0.174 | 62.77 ± 0.94 | 53.14 ± 0.8 | 44.49 ± 0.67 | 39.96 ± 0.6 | 37.25 ± 0.56
w2 = 0.9975 | 105.18 ± 1.6 | 86.06 ± 1.3 | 71.06 ± 1.1 | 69.38 ± 1 | 61.22 ± 0.92

[Zn] [zinc] + [Sn]
thermal conductivity [W/m/K]
Conditions | 323.15 K | 373.1 K | 423.15 K | 463.15 K
w1 = 0.01 | 78.49 ± 1.2 | 73.59 ± 1.1 | 66.89 ± 1 | 71.08 ± 1.1
w1 = 0.089 | 86.39 ± 1.3 | 81.42 ± 1.2 | 79.04 ± 1.2 | 75.42 ± 1.1
